Results as given in ChEMBL document CHEMBL1201862, “PubChem BioAssay data set” (2004).
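Test compounds were applied to cells in 96-well plates for 48 hours at 5 doses. Here, GI50 denotes the concentration required for 50% inhibition of growth.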 Active and inactive are the calls of the source. Cut-off read from the data, not from the text of the source: active = GI50 up to about 1.1 µM and inactive = higher.

Assays:
Experiment in all cases: NCI anticancer screen, dose series, 48 h
A549 = tested on: A549
A498 = tested on: A498
EKVX = tested on: EKVX
SNB-19 = tested on: SNB-19
OVCAR-8 = tested on: OVCAR-8
SW-620 = tested on: SW-620
MOLT-4 = tested on: MOLT-4
NCI-H226 = tested on: NCI-H226
RPMI-8226 = tested on: RPMI-8226
CCRF-CEM = tested on: CCRF-CEM
HOP-62 = tested on: HOP-62
KM12 = tested on: KM12
NCI-H23 = tested on: NCI-H23
HT-29 = tested on: HT-29
HCC 2998 = tested on: HCC 2998
SNB-75 = tested on: SNB-75

Measured: GI50

COC(=O)C1CC2C=CC=CC(=O)C2(C)C1 (stereo unspecified)
inactive: A549 > 100 µM | A498 36.2 µM | EKVX > 100 µM | SNB-19 76.7 µM | OVCAR-8 41.1 µM | SW-620 27.2 µM | MOLT-4 25.6 µM | NCI-H226 56.4 µM | RPMI-8226 22.6 µM | CCRF-CEM 21.6 µM | HOP-62 > 100 µM | KM12 45.7 µM | NCI-H23 44.3 µM | HT-29 40 µM

CC12CC[C@H](O)C(C)(C)[C@H]1CC[C@](C)(O)C2COc1ccc2ccc(=O)oc2c1 (stereo partly specified)
inactive: A549 81.7 µM | A498 > 100 µM | EKVX > 100 µM | SNB-19 > 100 µM | OVCAR-8 > 100 µM | SW-620 > 100 µM | MOLT-4 80.9 µM | NCI-H226 > 100 µM | RPMI-8226 99.1 µM | CCRF-CEM > 100 µM | HCC 2998 > 100 µM | HOP-62 > 100 µM | SNB-75 62.2 µM | KM12 > 100 µM | NCI-H23 > 100 µM | HT-29 > 100 µM

N#C/C(N)=N/c1ccccc1
inactive: A549 > 100 µM | A498 > 100 µM | EKVX > 100 µM | SNB-19 > 100 µM | OVCAR-8 > 100 µM | SW-620 > 100 µM | MOLT-4 > 100 µM | NCI-H226 > 100 µM | RPMI-8226 > 100 µM | CCRF-CEM > 100 µM | HCC 2998 > 100 µM | HOP-62 > 100 µM | SNB-75 > 100 µM | KM12 > 100 µM | NCI-H23 > 100 µM | HT-29 > 100 µM

CC(C)N(C(=O)C12C3C4C1C1C2C3C41C(O)C(C)(C)C)C(C)C (stereo unspecified)
inactive: A549 > 50 µM | A498 > 50 µM | EKVX > 50 µM | SNB-19 > 50 µM | OVCAR-8 > 50 µM | SW-620 > 50 µM | MOLT-4 > 50 µM | CCRF-CEM > 50 µM | HCC 2998 > 50 µM | HOP-62 > 50 µM | SNB-75 26.2 µM | HT-29 > 50 µM

O=C(O)CCN(CCCN(CCC(=O)O)CCC(=O)O)CCC(=O)O
inactive: A549 > 100 µM | A498 > 100 µM | EKVX > 100 µM | OVCAR-8 > 100 µM | SW-620 > 100 µM | MOLT-4 > 100 µM | RPMI-8226 > 100 µM | CCRF-CEM > 100 µM | HCC 2998 > 100 µM | HOP-62 > 100 µM | SNB-75 74.8 µM | KM12 > 100 µM | NCI-H23 > 100 µM | HT-29 > 100 µM

OCC1OC(NO)C(O)C(O)C1O (stereo unspecified)
inactive: A549 > 100 µM | A498 > 100 µM | SNB-19 > 100 µM | OVCAR-8 > 100 µM | SW-620 > 100 µM | MOLT-4 > 100 µM | NCI-H226 > 100 µM | RPMI-8226 > 100 µM | CCRF-CEM > 100 µM | HCC 2998 > 100 µM | HOP-62 > 100 µM | KM12 > 100 µM | NCI-H23 > 100 µM | HT-29 > 100 µM

O=C(O)C(C(=O)C(=O)C(C(=O)O)c1ccc(Cl)cc1)c1ccc(Cl)cc1 (stereo unspecified)
inactive: A549 2.9 µM | A498 4.76 µM | EKVX 3.27 µM | SNB-19 3.68 µM | OVCAR-8 2.25 µM | SW-620 3.98 µM | MOLT-4 1.72 µM | NCI-H226 4.58 µM | RPMI-8226 2.13 µM | CCRF-CEM 2.34 µM | HCC 2998 4.02 µM | HOP-62 5.22 µM | SNB-75 3.32 µM | KM12 3.75 µM | NCI-H23 2 µM | HT-29 3.72 µM

Cc1ccc2[nH]c(Sc3c([N+](=O)[O-])ncn3C)nc2c1
inactive: A549 30.5 µM | A498 25.1 µM | EKVX 26.1 µM | SNB-19 > 100 µM | OVCAR-8 14.4 µM | SW-620 25.3 µM | MOLT-4 13.9 µM | NCI-H226 12.8 µM | RPMI-8226 25.1 µM | HCC 2998 15.7 µM | HOP-62 > 100 µM | SNB-75 25.3 µM | KM12 67 µM | NCI-H23 18.6 µM | HT-29 29.6 µM

CC(=O)c1ccc(NC(=O)COC(=O)c2cccc3c(=O)c4ccccc4[nH]c23)cc1
inactive: A549 45.4 µM | A498 44 µM | EKVX > 100 µM | SNB-19 22.5 µM | OVCAR-8 9.2 µM | SW-620 52.8 µM | MOLT-4 > 100 µM | NCI-H226 19.4 µM | CCRF-CEM > 100 µM | HCC 2998 > 100 µM | HOP-62 31.5 µM | SNB-75 10.1 µM | KM12 12.9 µM | NCI-H23 18.6 µM | HT-29 45.5 µM

CC(C)(C)c1cc(C(=O)O)c(C(c2ccccc2)c2ccccc2C(=O)O)c(C(=O)O)c1 (stereo unspecified)
inactive: A549 > 100 µM | EKVX > 100 µM | SNB-19 > 100 µM | OVCAR-8 > 100 µM | SW-620 > 100 µM | MOLT-4 > 100 µM | NCI-H226 35 µM | CCRF-CEM > 100 µM | HOP-62 > 100 µM | SNB-75 21.7 µM | KM12 > 100 µM | NCI-H23 > 100 µM | HT-29 > 100 µM

Clc1ccc(C(c2ccc(Cl)cc2)c2ccccn2)cc1
inactive: A549 18.5 µM | EKVX 23 µM | SNB-19 22.3 µM | OVCAR-8 16.7 µM | SW-620 20.1 µM | MOLT-4 21.4 µM | NCI-H226 17.1 µM | RPMI-8226 28.8 µM | CCRF-CEM 21.5 µM | HCC 2998 15.9 µM | SNB-75 44.9 µM | KM12 19.1 µM | NCI-H23 31.6 µM | HT-29 14.9 µM

Cc1cc2c(c(C#N)c1C)NC(=O)C(CC(=O)O)C2=O (stereo unspecified)
inactive: A549 > 100 µM | A498 > 100 µM | EKVX > 100 µM | OVCAR-8 > 100 µM | SW-620 > 100 µM | MOLT-4 > 100 µM | NCI-H226 > 100 µM | RPMI-8226 > 100 µM | CCRF-CEM > 100 µM | HCC 2998 > 100 µM | HOP-62 > 100 µM | SNB-75 > 100 µM | KM12 > 100 µM | NCI-H23 > 100 µM | HT-29 > 100 µM

C[N+](C)(C)CC(=O)N/N=C(/Cc1cc(=O)oc2cc(O)ccc12)C(=O)Nc1ccc(Cl)cc1
inactive: A549 > 100 µM | A498 > 100 µM | EKVX > 100 µM | SNB-19 > 100 µM | OVCAR-8 > 100 µM | SW-620 > 100 µM | MOLT-4 > 100 µM | RPMI-8226 > 100 µM | CCRF-CEM > 100 µM | HCC 2998 > 100 µM | HOP-62 > 100 µM | KM12 > 100 µM | NCI-H23 > 100 µM | HT-29 > 100 µM

CC[N+](CC)(CC)Cc1cc2ccccc2n1C(=O)OC
inactive: A549 > 100 µM | SNB-19 > 100 µM | OVCAR-8 > 100 µM | SW-620 > 100 µM | MOLT-4 > 100 µM | NCI-H226 > 100 µM | RPMI-8226 > 100 µM | CCRF-CEM > 100 µM | HCC 2998 > 100 µM | HOP-62 > 100 µM | SNB-75 87.9 µM | KM12 > 100 µM | NCI-H23 > 100 µM | HT-29 > 100 µM

COc1cccc(C=O)c1C(=O)c1cc(O)ccc1O
inactive: A549 > 100 µM | A498 > 44.9 µM | EKVX 18.5 µM | SNB-19 > 100 µM | OVCAR-8 20.3 µM | SW-620 17.1 µM | MOLT-4 3.13 µM | NCI-H226 > 100 µM | CCRF-CEM 3.91 µM | HCC 2998 > 100 µM | HOP-62 > 100 µM | SNB-75 > 95.3 µM | KM12 > 100 µM | NCI-H23 > 81.7 µM | HT-29 > 49.2 µM

C=C1C(=O)c2cc3c(cc2C(c2cc(OC)c(OC)c(OC)c2)[C@@H]1C(=O)O)OCO3 (stereo partly specified)
inactive: A549 80.4 µM | A498 32.6 µM | EKVX > 100 µM | OVCAR-8 > 100 µM | SW-620 53.2 µM | MOLT-4 37.9 µM | NCI-H226 > 100 µM | RPMI-8226 39.3 µM | CCRF-CEM 33 µM | HCC 2998 > 100 µM | SNB-75 20.5 µM | KM12 44.5 µM | NCI-H23 57.7 µM | HT-29 37.2 µM

CCCN/C(N)=N/C#N
inactive: A549 > 100 µM | A498 67.6 µM | EKVX > 100 µM | SNB-19 > 100 µM | OVCAR-8 > 100 µM | SW-620 13.6 µM | MOLT-4 > 100 µM | NCI-H226 > 100 µM | RPMI-8226 > 100 µM | HCC 2998 > 100 µM | HOP-62 > 100 µM | SNB-75 > 100 µM | KM12 > 100 µM | NCI-H23 > 100 µM | HT-29 30.8 µM

CCCCCCCCCCCCCP(=O)(OC)OC
inactive: A549 21.2 µM | EKVX 19.4 µM | SNB-19 20.8 µM | OVCAR-8 17 µM | SW-620 17.7 µM | MOLT-4 19.1 µM | NCI-H226 19.2 µM | RPMI-8226 24.3 µM | CCRF-CEM 20.8 µM | HCC 2998 21.5 µM | HOP-62 14.9 µM | SNB-75 21.2 µM | KM12 17.5 µM | NCI-H23 18.7 µM | HT-29 18.4 µM

CN(C(=O)C12C3C4C1C1C4(C(=O)C45C6C7C4C4C5C6C74C)C3C12C)C(C)(C)C (stereo unspecified)
inactive: A549 52.7 µM | A498 55.3 µM | EKVX > 100 µM | SNB-19 69.5 µM | OVCAR-8 > 100 µM | SW-620 > 100 µM | MOLT-4 40.3 µM | NCI-H226 72.3 µM | CCRF-CEM 32.1 µM | HCC 2998 91 µM | HOP-62 > 100 µM | SNB-75 > 100 µM | KM12 78.7 µM | NCI-H23 70.5 µM | HT-29 17.5 µM
